For 4 molecules, melting point and IC50 results are on record in patent publication US6977254B2, “Hydroxy cyclohexenyl phenyl carboxamides tocolytic oxytocin receptor antagonists” (Wyeth, priority 2001, dated 2005).

For series [1], the target named is T1, human oxytocin receptor (Homo sapiens, UniProt P30559).
T1 construct: host or cells: CHO cells, stably transfected (pcDNA3.1 vector); membranes
T1 sequence (P30559 1-389): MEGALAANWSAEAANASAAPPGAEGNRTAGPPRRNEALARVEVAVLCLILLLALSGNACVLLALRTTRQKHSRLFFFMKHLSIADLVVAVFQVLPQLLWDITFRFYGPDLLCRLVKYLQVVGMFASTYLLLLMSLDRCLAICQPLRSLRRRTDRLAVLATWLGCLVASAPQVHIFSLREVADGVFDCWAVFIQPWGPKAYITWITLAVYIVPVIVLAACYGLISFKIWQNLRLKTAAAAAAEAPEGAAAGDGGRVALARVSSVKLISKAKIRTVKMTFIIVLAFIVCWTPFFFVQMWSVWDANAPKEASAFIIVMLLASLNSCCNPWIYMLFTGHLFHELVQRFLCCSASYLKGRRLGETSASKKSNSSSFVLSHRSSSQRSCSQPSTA
Put plainly: Oxytocin binding in CHO cell membranes expressing human oxytocin receptors ([3H]oxytocin radioligand). The note with it: value in parentheses, read-out: OT (IC50). The text has this: Oxytocin binding in Chinese Hamster Ovary cell membranes expressing human oxytocin receptors
Chinese Hamster Ovary (CHO) cells stably transfected with the human oxytocin (cf. T. Kimura et al., U.S. Pat. No. 5,466,584 (1995) to Rohto Pharmaceutical Co. Ltd., Osaka, Japan) were obtained from Dr. M. Thibonnier, Case Western Reserve University School of Medicine, Cleveland, Ohio.
A. Passaging and Amplification of Cells:
CHO cells transfected with the human oxytocin receptors obtained from M. Thibonnier (pcDNA3.1 vector) are allowed to grow to confluency (approx. >90%) in T-150 flasks under sterile conditions, in a cell culture medium of F-12 Nutrient Mixture (HAM) with L-glutamine (Gibco Cat. #11765-054) containing 15 mM HEPES (Gibco Cat. #15630-080), 1% antibiotic/antimycotic (add 5 mL 100×, Gibco Cat. #15240-062 per 500 mL F-12), 400 μg/mL of Geneticin (add 4 mL of 50 mg/mL per 500 mL F-12) and 10% Fetal Bovine Serum (Qualified, heat inactivated, Gibco Cat. #16140-063). The medium is removed by aspiration and the cells are washed with 10 mL of Hank's Balanced Salt solution (Gibco Cat. #14175-095). The salt solution is removed by aspiration and the cells trypsinized with 5 mL of trypsin-EDTA (0.05% trypsin, 0.53 mM EDTA-4Na, Gibco Cat. #25300-070) for 1 min The trypsin is removed by aspiration and the cells dislodged by tapping. Cell Culture medium (e.g. 30 mL for 1:30 split) is immediately added and mixed well to inactivate trypsin. 1 mL of detached cells is added to new culture flasks containing fresh Cell Culture medium (e.g. into 25 mL per T-150 flask), and mixed gently. The cells are incubated at 37° C. in 5% CO2. The medium is changed at 3 to 4 days interval (or as appropriate). The cells grow to confluency (approx. >75%-95%) within 7-8 days. All steps are done under sterile conditions.
The cells are washed twice gently with Hank's Balanced Salt solution (eg, use 10 mL per T-150 flask). The excess is removed and the cells bathed for 15-30 min. in an enzyme-free Cell Dissociation Buffer (eg, use 8 mL Hank's Based, Gibco Cat. #13150-016 per T-150 flask) until cells are loosened. The contents are transferred to centrifuge tubes (50 mL size) kept in ice bath. All subsequent steps are done at 4° C. The tubes are centrifuged at 300×g for 15 min (1380 rpm on SORVAL, Model RT6000D, using rotor for 50 mL tubes). The supernatant is discarded and the cells suspended in homogenizing buffer (10 mM Tris-HCl containing 0.25 M sucrose and 1 mM EDTA, pH 7.4) ensuring that the volume of the buffer is about ten times the volume of the cell pellet. The cells are pooled into a centrifuge tube (50 mL) and homogenized with Polytron at setting 6 for 10 sec. The homogenate is transferred into a Potter-Elvjehm homogenizer and homogenized with 3 strokes. The homogenate is centrifuged at 1500×g for 10 min at 4° C. (3100 rpm using SORVAL, model RT6000D, using rotor for 50 mL tubes). The pellet is discarded. The supernatant is centrifuged at 100,000×g for 60 min. at 4° C. (Beckman L8-80M ultracentrifuge; spin at 37,500 rpm with rotor type 70 Ti for 50 mL tubes; 38,000 rpm with type 80Ti for 15 mL tubes; or 35,800 rpm with rotor type 45Ti). The supernantant is discarded and the pellet suspended in 3 to 4 mL of Tris buffer (50 mM TRIS-HCl, pH 7.4). The protein content is estimated by the Bradford or Lowry method. The volume of the membrane suspension is adjusted with the membrane buffer (50 mM Tris-HCl containing 0.1% BSA and 0.1 mM PMSF) to give 3.0 mg/mL (or as appropriate) of protein. The membranes are aliquoted and stored at −70° C.
C. Radioligand Binding Assay:
In wells of a 96-well format microtiter plate, is added 90, 110 or 130 μL (to make up a final volume of 200 μL) of assay buffer containing 50 mM of Tris-HCl (pH 7.4), […], 1 mg % aprotinin, 1 mg % leupeptin, 2 mg % 1,10-phenanthroline, 10 mg % trypsin inhibitor, and 0.1 mM PMSF. The inhibitors are added on the day of the experiment. […]

pIC50: −log10 of the molar value.

A word on the melting point: it is the temperature, or range, at which the solid turns liquid. In general, pIC50 refers to the negative decadic logarithm of the IC50, by convention in mol/L. On to `COc1cc(C2=CCCCC2)c(Cl)cc1C(=O)N1Cc2ccc(C(=O)N(C)CC(O)CO)n2Cc2ccccc21` (centres unmarked) [Example 4, 10-(5-Chloro-4-cyclohex-1-en-1-yl-2-methoxybenzoyl)-N-(2,3-dihydroxypropyl)-N-methyl-10,11-dihydro-5H-pyrrolo[2,1-c][1,4]benzodiazepine-3-carboxamide], for which the melting point is 155 to 157 °C. Also, the pIC50 in series [1] is 8.68.
For `Cc1cc(C(=O)N2Cc3ccc(C(=O)N(C)C[C@H](O)[C@H]4OC(=O)O[C@@H]4[C@H](O)CO)n3Cc3ccccc32)ccc1C1=CCCCC1` [Example 6, 10-(4-Cyclohex-1-en-1-yl-3-methylbenzoyl)-N-((2S)-2-{(4R,5R)-5-[(1R)-1,2-dihydroxyethyl]-2-oxo-1,3-dioxolan-4-yl}-2-hydroxyethyl)-N-methyl-10,11-dihydro-5H-pyrrolo[2,1-c][1,4]benzodiazepine-3-carboxamide] the same measures were 166 to 175 °C and 9.02.
Consider `COc1cc(C2=CCCCC2)c(Cl)cc1C(=O)N1Cc2ccc(C(=O)N(C)C[C@H](O)[C@@H](O)[C@H](O)[C@H](O)CO)n2Cc2ccccc21` [Example 1, 1-[[[10-[5-Chloro-4-(1-cyclohex-1-en-1-yl)-2-methoxybenzoyl]-10,11-dihydro-5H-pyrrolo[2,1-c][1,4]benzodiazepin-3-yl]carbonyl]methylamino]-1-deoxy-D-glucitol], for which the melting point was 72 to 73 °C. Also, the pIC50 in series [1] was 9.01.
With `COC[C@@H](OC)[C@@H](OC)[C@H](OC)[C@H](CN(C)C(=O)c1ccc2n1Cc1ccccc1N(C(=O)c1ccc(C3=CCCCC3)c(C)c1)C2)OC` [Example 8, 10-(4-Cyclohex-1-en-1-yl-3-methylbenzoyl)-N-methyl-N-[(2S,3R,4R,5R)-2,3,4,5,6-pentamethoxyhexyl]-10,11-dihydro-5H-pyrrolo[2,1-c][1,4]benzodiazepine-3-carboxamide], the melting point was 68 to 83 °C. Besides, the pIC50 in series [1] was 7.89.
